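GI50 = concentration required for 50% inhibition of growth. At the TGI there is no net growth.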
Legend:
Assay in all cases: NCI anticancer screen, dose series, 384-well format
[1] = test system: HOP-92 NSCLC
[2] = test system: SF-295 CNS
[3] = test system: UACC-257 melanoma
[4] = test system: OVCAR-8 ovarian
[5] = test system: SNB-75 CNS
[6] = test system: RXF 393 renal
[7] = test system: NCI-H322M lung
[8] = test system: MDA-MB-468 breast
[9] = test system: DU-145 prostate
[10] = test system: SF-539 CNS
[11] = test system: MCF7 breast
[12] = test system: MDA-MB-435 melanoma
[13] = test system: SK-MEL-28 melanoma
[14] = test system: NCI-H226 lung
[15] = test system: ACHN renal
[16] = test system: 786-0 renal
[17] = test system: KM12 colon
[18] = test system: PC-3 prostate
[19] = test system: HCC-2998 colon
[20] = test system: HL-60(TB) leukemia
[21] = test system: M14 melanoma
[22] = test system: CCRF-CEM leukemia
[23] = test system: A549 NSCLC
[24] = test system: U251 glioblastoma
[25] = test system: SK-MEL-5 melanoma
[26] = test system: COLO 205 colon
[27] = test system: OVCAR-3 ovarian
[28] = test system: SF-268 CNS
[29] = test system: HOP-62 NSCLC
[30] = test system: MOLT-4 leukemia
[31] = test system: OVCAR-4 ovarian
[32] = test system: SNB-19 CNS
[33] = test system: RPMI-8226 leukemia
[34] = test system: UO-31 renal
[35] = test system: IGROV1 ovarian
[36] = test system: MDA-MB-231 breast
[37] = test system: HT29 colon
[38] = test system: BT-549 breast
[39] = test system: HCT-15 colon
[40] = test system: A498 renal
[41] = test system: NCI-H460 NSCLC
[42] = test system: HS 578T breast
[43] = test system: NCI-H522 lung
[44] = test system: SK-OV-3 ovarian
[45] = test system: OVCAR-5 ovarian
[46] = test system: LOX IMVI melanoma
[47] = test system: TK-10 renal
[48] = test system: EKVX NSCLC
[49] = test system: NCI/ADR-RES ovarian
[50] = test system: SW-620 colon
[51] = test system: MALME-3M melanoma
[52] = test system: K-562 leukemia
[53] = test system: NCI-H23 lung
[54] = test system: SR leukemia
[55] = test system: CAKI-1 renal
[56] = test system: SN12C renal
[57] = test system: T-47D breast
[58] = test system: UACC-62 melanoma

`O=C(NOCC1CC1)c1ccc(F)c(F)c1Nc1ccc(I)cc1Cl` gave a GI50 [1] of 1.06 µM, a TGI [1] of 2.41 µM and a GI50 [2] of 2.25 µM. For the same compound, the TGI [2] was 6.09 µM, the GI50 [3] was 0.046 µM and the TGI [3] was 0.234 µM. For the same compound, the GI50 [4] was 1.92 µM, the TGI [4] was 4.82 µM and the GI50 [5] was 1.88 µM. The TGI [5] was 9.45 µM, the GI50 [6] was 2.11 µM and the TGI [6] was 11.6 µM. For the same compound, the GI50 [7] was 1.23 µM, the TGI [7] was 6.8 µM and the GI50 [8] was 1.85 µM. For the same compound, the TGI [8] was 3.55 µM, the GI50 [9] was 3.49 µM and the TGI [9] was 15.3 µM. It also gave a GI50 [10] of 1.62 µM, a TGI [10] of 3.61 µM and a GI50 [11] of 2.9 µM. For the same compound, the TGI [11] was 10.7 µM, the GI50 [12] was 0.11 µM and the TGI [12] was 6.03 µM. It also gave a GI50 [13] of 0.0352 µM, a TGI [13] of 0.208 µM and a GI50 [14] of 1.18 µM. The TGI [14] was 4.32 µM, the GI50 [15] was 1.66 µM and the TGI [15] was 15.4 µM. For the same compound, the GI50 [16] was 1.86 µM, the TGI [16] was 9.93 µM and the GI50 [17] was 0.414 µM. It also gave a TGI [17] of 3.93 µM, a GI50 [18] of 3.5 µM and a TGI [18] of 11.8 µM. It also gave a GI50 [19] of 0.0847 µM, a TGI [19] of 0.54 µM and a GI50 [20] of 0.0375 µM. The TGI [20] was 0.808 µM, the GI50 [21] was 0.0349 µM and the TGI [21] was 0.176 µM. It also gave a GI50 [22] of 1.8 µM, a TGI [22] of 3.37 µM and a GI50 [23] of 1.03 µM. For the same compound, the TGI [23] was 3.84 µM, the GI50 [24] was 2.11 µM and the TGI [24] was 8.04 µM. It also gave a GI50 [25] of 0.104 µM, a TGI [25] of 1.58 µM and a GI50 [26] of 0.0566 µM. For the same compound, the TGI [26] was 1.01 µM, the GI50 [27] was 1.64 µM and the TGI [27] was 3.32 µM. It also gave a GI50 [28] of 3.18 µM, a TGI [28] of 14.7 µM and a GI50 [29] of 0.868 µM. It also gave a TGI [29] of 6.43 µM, a GI50 [30] of 1.65 µM and a TGI [30] of 3.02 µM. The GI50 [31] was 1.49 µM, the TGI [31] was 5.03 µM and the GI50 [32] was 1.34 µM. For the same compound, the TGI [32] was 5.8 µM, the GI50 [33] was 0.277 µM and the TGI [33] was 1.78 µM. The GI50 [34] was 2.34 µM, the TGI [34] was greater than 100 µM and the GI50 [35] was 1.08 µM. For the same compound, the TGI [35] was 2.81 µM, the GI50 [36] was 0.896 µM and the TGI [36] was 2.96 µM. The GI50 [37] was 0.279 µM, the TGI [37] was 10.3 µM and the GI50 [38] was 2.73 µM. It also gave a TGI [38] of 14.8 µM, a GI50 [39] of 2.29 µM and a TGI [39] of 11.5 µM. For the same compound, the GI50 [40] was 1.69 µM, the TGI [40] was 12.2 µM and the GI50 [41] was 1.38 µM. It also gave a TGI [41] of 11.4 µM, a GI50 [42] of 1.84 µM and a TGI [42] of 6.16 µM. The GI50 [43] was 1.82 µM, the TGI [43] was 4.09 µM and the GI50 [44] was 3.16 µM. The TGI [44] was 13.3 µM, the GI50 [45] was 0.304 µM and the TGI [45] was 2.65 µM. For the same compound, the GI50 [46] was 0.337 µM, the TGI [46] was 1.69 µM and the GI50 [47] was 1.91 µM. It also gave a TGI [47] of 5.84 µM, a GI50 [48] of 1.72 µM and a TGI [48] of 4.29 µM. The GI50 [49] was 1.74 µM, the TGI [49] was 3.69 µM and the GI50 [50] was 0.105 µM. It also gave a TGI [50] of 1.87 µM, a GI50 [51] of 0.017 µM and a TGI [51] of 0.0448 µM. For the same compound, the GI50 [52] was 1.75 µM, the TGI [52] was 10.7 µM and the GI50 [53] was 0.246 µM. The TGI [53] was 1.91 µM, the GI50 [54] was 1.65 µM and the TGI [54] was 3.26 µM. It also gave a GI50 [55] of 1.03 µM, a TGI [55] of 3.07 µM and a GI50 [56] of 1.04 µM. The TGI [56] was 4.43 µM, the GI50 [57] was 2.35 µM and the TGI [57] was 7.06 µM. The GI50 [58] was 0.04 µM and the TGI [58] was 0.259 µM.
